Patent US10669272B2, “Substituted naphthyridinone compounds useful as T cell activators” (BRISTOL-MYERS SQUIBB COMPANY, priority 2018, dated 2020)
Like-named read-outs stand apart in the source and are kept apart here.

What was measured:
[1] = target: T1, human DGKζ (Homo sapiens, UniProt Q13574); assay: DGKζ LIPGLO assay (extruded liposome substrate), in vitro DGK inhibition; assay type: biochemical; settings: read-out: DGKz LIPGLO IC50
T1 construct: TVMV protease cleavage site (C); Hexa-His (C); made in house; host or cells: Sf9 insect cells (baculovirus, Bac-to-Bac)

[2] = tested on: Human venous whole blood; assay: Human whole blood IFN-γ assay; assay type: cell-based;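 also: blood from healthy donors exposed to compound for 1 h before stimulation with anti-CD3 and anti-CD28 at 1 µg/mL each, IFN-γ quantified in supernatant by AlphaLISA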
Experimental: Human Whole Blood IFN-γ Assay
Human venous whole blood (22.5 μL per well), obtained from healthy donors, was pre-treated with compounds for one hour at 37° C. in a humidified 95% air/5% CO2 incubator. The blood was stimulated with 2.5 μL anti-human CD3 and anti-CD28 mAb at a final concentration of 1 μg/mL each for 24 hours at 37° C. IFN-γ in the supernatants was measured using AlphLISA kit (Cat # AL217).

[3] = target: T2, human DGKα (Homo sapiens, UniProt P23743); assay: DGKα LIPGLO assay (extruded liposome substrate), in vitro DGK inhibition; assay type: biochemical; settings: read-out: DGKa LIPGLO IC50
T2 construct: TVMV protease cleavage site (C); Hexa-His (C); made in house; host or cells: Sf9 insect cells (baculovirus, Bac-to-Bac)

[4] = Homo sapiens, 24 h, human whole blood; normalized to 3 μM reference compound with anti-CD3 plus anti-CD28 as 100% activation; read-out: INFg Whole Blood Normalized Agonist EC50
[5] = human whole blood; normalized to 3 μM reference compound with anti-CD3 plus anti-CD28 as 100% activation; read-out: INFg Whole Blood Normalized Agonist EC50
[6] = Homo sapiens, 24 h, human whole blood, anti-CD3 plus anti-CD28, 24 hours; 3 μM reference compound = 100% activation; read-out: INFg Whole Blood Normalized Agonist EC50
[7] = human whole blood, anti-CD3 plus anti-CD28, 24 hours; 3 μM reference compound = 100% activation; read-out: INFg Whole Blood Normalized Agonist EC50

T2 sequence (P23743 with tags, fused parts or gaps): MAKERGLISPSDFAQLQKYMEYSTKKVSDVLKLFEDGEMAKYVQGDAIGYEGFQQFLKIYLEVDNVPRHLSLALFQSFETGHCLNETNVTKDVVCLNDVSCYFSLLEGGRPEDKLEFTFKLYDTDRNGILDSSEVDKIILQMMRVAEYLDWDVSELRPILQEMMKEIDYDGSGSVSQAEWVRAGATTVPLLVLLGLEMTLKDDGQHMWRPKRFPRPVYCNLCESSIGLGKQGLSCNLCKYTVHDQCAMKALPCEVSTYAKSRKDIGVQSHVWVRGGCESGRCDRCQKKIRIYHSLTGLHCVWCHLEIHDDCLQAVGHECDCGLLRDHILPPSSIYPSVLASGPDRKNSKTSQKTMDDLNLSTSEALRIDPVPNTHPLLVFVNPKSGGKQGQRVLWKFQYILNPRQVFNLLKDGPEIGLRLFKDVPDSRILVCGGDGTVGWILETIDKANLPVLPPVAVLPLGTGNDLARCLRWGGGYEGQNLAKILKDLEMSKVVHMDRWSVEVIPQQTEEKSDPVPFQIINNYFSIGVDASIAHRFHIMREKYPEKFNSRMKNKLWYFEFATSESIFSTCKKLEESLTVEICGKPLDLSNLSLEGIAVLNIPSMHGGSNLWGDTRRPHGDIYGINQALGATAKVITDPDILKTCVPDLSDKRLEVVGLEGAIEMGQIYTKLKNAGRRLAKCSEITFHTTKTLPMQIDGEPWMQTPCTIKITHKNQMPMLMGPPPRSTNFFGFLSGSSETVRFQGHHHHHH
T1 sequence (Q13574 with tags, fused parts or gaps isoform Q13574-4): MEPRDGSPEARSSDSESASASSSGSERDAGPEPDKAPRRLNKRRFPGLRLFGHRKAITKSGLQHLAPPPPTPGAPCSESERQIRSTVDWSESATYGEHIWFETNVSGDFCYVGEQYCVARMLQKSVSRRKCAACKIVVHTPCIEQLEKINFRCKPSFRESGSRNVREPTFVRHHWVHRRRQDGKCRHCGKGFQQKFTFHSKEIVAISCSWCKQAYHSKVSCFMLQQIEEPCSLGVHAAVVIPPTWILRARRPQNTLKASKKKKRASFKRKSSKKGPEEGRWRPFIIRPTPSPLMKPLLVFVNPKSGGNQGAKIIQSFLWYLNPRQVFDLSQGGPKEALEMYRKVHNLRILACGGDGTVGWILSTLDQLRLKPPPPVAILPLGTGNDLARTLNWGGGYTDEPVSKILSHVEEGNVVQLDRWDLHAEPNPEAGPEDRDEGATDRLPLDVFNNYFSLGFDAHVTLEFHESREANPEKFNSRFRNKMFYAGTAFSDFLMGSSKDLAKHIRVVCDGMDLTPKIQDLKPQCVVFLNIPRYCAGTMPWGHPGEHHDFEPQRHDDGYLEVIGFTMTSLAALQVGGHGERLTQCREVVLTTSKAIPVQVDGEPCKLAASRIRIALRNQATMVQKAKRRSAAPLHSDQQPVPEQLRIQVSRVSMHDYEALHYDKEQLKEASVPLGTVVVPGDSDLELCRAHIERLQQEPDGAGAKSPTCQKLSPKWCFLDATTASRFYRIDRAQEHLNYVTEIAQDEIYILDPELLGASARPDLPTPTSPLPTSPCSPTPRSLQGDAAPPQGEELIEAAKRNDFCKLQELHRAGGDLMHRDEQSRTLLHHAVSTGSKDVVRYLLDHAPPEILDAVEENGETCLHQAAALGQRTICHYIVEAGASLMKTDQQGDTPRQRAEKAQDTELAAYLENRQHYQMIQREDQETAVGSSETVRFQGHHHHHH

| Structure (SMILES) | IC50 ([1]; liposome (LIPGLO) assay) [nM] | IC50 ([3]; liposome (LIPGLO) assay) [nM] | EC50 [2, 5] [nM] | also measured |
| --- | --- | --- | --- | --- |
| CC(c1ccc(P(C)(C)=O)cc1)N1C[C@H](C)N(c2c(C#N)c(=O)n(C)c3ccc(C#N)nc23)C[C@H]1C (single isomer, unassigned) [Example 1294] | 220000 |  |  | EC50 [2, 4]: 20000 nM |
| CC(c1csc(C(F)(F)F)n1)N1C[C@H](C)N(c2cc(=O)n(C)c3ccc(C#N)nc23)C[C@H]1C (single isomer, unassigned) [Example 1274] |  | 590 | 3300 |  |
| COc1ccc(C(c2ccc(F)cc2)N2C[C@H](C)N(c3c(C#N)c(=O)n(C)c4ccc(C#N)nc34)C[C@H]2C)nc1 (stereo partly drawn) [Example 838] |  |  |  | IC50 ([1]; DGKζ liposome (LIPGLO) assay): 2100 nM; EC50 [2, 6]: 17000 nM |
| C[C@@H]1CN(c2c(C#N)c(=O)n(C)c3ccc(C#N)nc23)CCN1C(c1ccccc1)c1ccc(Cl)cc1 (single isomer, unassigned) [Example 887] |  |  |  | EC50 ([2]; read-out: INFg Whole Blood Normalized Agonist EC50; human whole blood, anti-CD3 plus anti-CD28, 24 hours; 3 μM reference compound = 100% activation): 1600 nM |
| C[C@@H]1CN(c2c(F)c(=O)n(C)c3ccc(C#N)nc23)[C@@H](C)CN1C(c1ccc(F)cc1)c1ccc(C(F)(F)F)cc1 (stereo partly drawn) [Example 326, 7-fluoro-8-((2S,5R)-4-((4-fluorophenyl)(4-(trifluoromethyl)phenyl)methyl)-2,5-dimethylpiperazin-1-yl)-5-methyl-6-oxo-5,6-dihydro-1,5-naphthyridine-2-carbonitrile] | 6500 |  | 20000 |  |
| C[C@@H]1CN(c2cc(=O)n(C)c3ccc(C#N)nc23)[C@@H](C)CN1C(c1ccc(F)cc1)c1ccccc1P(C)(C)=O (stereo partly drawn) [Example 1287, 8-((2S,5R)-4-((2-(dimethylphosphoryl)phenyl)(4-fluorophenyl)methyl)-2,5-dimethylpiperazin-1-yl)-5-methyl-6-oxo-5,6-dihydro-1,5-naphthyridine-2-carbonitrile] | 3700 |  |  | EC50 [2, 4]: 8400 nM |
| C[C@@H]1CN(c2c(C#N)c(=O)n(C)c3ccc(C#N)nc23)CCN1Cc1ccccc1OC(F)(F)F [Example 999] |  |  |  | IC50 ([3]; DGKα liposome (LIPGLO) assay): 270 nM; EC50 [2, 6]: 17000 nM |
| CC[C@@H]1CN(c2cc(=O)n(C)c3ccc(C#N)nc23)[C@@H](C)CN1C(c1ccc(Cl)cc1)c1ccc(F)cn1 (stereo partly drawn) [Example 1110] | 160 |  | 1300 |  |
| CC[C@@H]1CN(c2cc(=O)n(C)c3ccc(C#N)nc23)[C@@H](C)CN1Cc1ccc(OC(F)(F)F)cc1F [Example 1347] | 170 |  |  | EC50 [2, 4]: 730 nM |
| C[C@@H]1CN(c2c(F)c(=O)n(C)c3ccc(C#N)nc23)[C@@H](C)CN1C(c1ccc(Cl)cc1)c1ccc(OC(F)(F)F)cc1 (stereo partly drawn) [Example 323, 8-((2S,5R)-4-((4-chlorophenyl)(4-(trifluoromethoxy)phenyl)methyl)-2,5-dimethylpiperazin-1-yl)-7-fluoro-5-methyl-6-oxo-5,6-dihydro-1,5-naphthyridine-2-carbonitrile] |  | 2100 |  | EC50 [2, 4]: 5700 nM |
| Cc1oc(-c2cccc(F)c2)nc1CN1C[C@H](C)N(c2cc(=O)n(C)c3ccc(C#N)nc23)C[C@H]1C [Example 1430] |  | 21000 | 7000 |  |
| Cc1cccc(C(c2ccc(F)cc2)N2CCN(c3c(C#N)c(=O)n(C)c4ccc(C#N)nc34)C[C@H]2C)c1 (stereo partly drawn) [Example 916] |  |  |  | IC50 ([1]; DGKζ liposome (LIPGLO) assay): 450 nM; EC50 [2, 7]: 1900 nM |
| C[C@@H]1CN(c2cc(=O)n(C)c3ccc(C#N)nc23)[C@@H](C)CN1C(c1ccccc1)c1ccc(F)cc1 (single isomer, unassigned) [Example 184] |  |  | 570 |  |
| COC[C@@H]1CN(c2cc(=O)n(C)c3ccc(C#N)nc23)[C@@H](C)CN1C(c1ccc(F)cc1)c1nc(C2CC2)cs1 (single isomer, unassigned) [Example 1395] | 70 |  | 190 |  |
| C[C@@H]1CN(c2cc(=O)n(C)c3ccc(C#N)nc23)[C@@H](C)CN1C(c1ccc(F)cc1)c1nc(C2CCN(C)CC2)no1 (single isomer, unassigned) [Example 751] |  |  |  | IC50 ([1]; DGKζ liposome (LIPGLO) assay): 17000 nM; EC50 [2, 7]: 4500 nM |
| COCc1ccc(C(C)N2C[C@H](C)N(c3cc(=O)n(C)c4ccc(C#N)nc34)C[C@H]2C)cc1 (stereo partly drawn) [Example 1266] |  |  | 1400 |  |

| Structure (SMILES) | IC50 ([1]; liposome (LIPGLO) assay) [nM] | IC50 ([3]; liposome (LIPGLO) assay) [nM] | EC50 [2, 5] [nM] | also measured |
| --- | --- | --- | --- | --- |
| CCC(c1cc(OC(F)(F)F)ccc1F)N1C[C@H](C)N(c2cc(=O)n(C)c3ccc(C#N)nc23)C[C@H]1C (stereo partly drawn) [Example 1206] |  |  | 2100 |  |
| CC(c1cc(OC(F)(F)F)ccc1F)N1C[C@H](C)N(c2cc(=O)n(C)c3ccc(C#N)nc23)C[C@H]1C (stereo partly drawn) [Example 1202] |  | 2200 | 1300 |  |
| C[C@@H]1CN(c2cc(=O)n(C)c3ccc(C#N)nc23)[C@@H](C)CN1C(c1ccc(F)cc1)c1ccccc1P(C)(C)=O (single isomer, unassigned) [Example 1288] |  | 290000 |  | EC50 [2, 4]: 8800 nM |
| CC[C@H]1CN(C(c2ccc(F)cc2)c2ccccn2)[C@H](CC)CN1c1cc(=O)n(C)c2ccc(C#N)nc12 (single isomer, unassigned) [Example 1044] | 70 |  | 350 |  |
| CCC(c1cc(Cl)cc2c1OCC2)N1C[C@H](C)N(c2cc(=O)n(C)c3ccc(C#N)nc23)C[C@H]1C (single isomer, unassigned) [Example 357] | 890 |  | 13000 |  |
| CC(c1ccc(OC(F)(F)F)cc1)N1C[C@H](C)N(c2cc(=O)n(C)c3ccc(C#N)nc23)C[C@H]1CN(C)C (stereo partly drawn) [Example 1413, 8-((2S,5R)-5-((dimethylamino)methyl)-2-methyl-4-(1-(4-(trifluoromethoxy)phenyl)ethyl)piperazin-1-yl)-5-methyl-6-oxo-5,6-dihydro-1,5-naphthyridine-2-carbonitrile] | 1800 |  |  | EC50 [2, 4]: 1400 nM |
| Cc1oc(-c2cccc(F)c2)nc1CN1C[C@H](C)N(c2cc(=O)n(C)c3ccc(C#N)nc23)C[C@H]1C [Example 1429] |  | 48000 | 20000 |  |
| Cc1noc(C(c2ccc(F)cc2)N2C[C@H](C)N(c3cc(=O)n(C)c4ccc(C#N)nc34)C[C@H]2C)n1 (stereo partly drawn) [Example 746] |  |  |  | IC50 ([1]; DGKζ liposome (LIPGLO) assay): 170 nM; EC50 [2, 7]: 960 nM |
| CC(c1ccc(Cl)cc1F)N1C[C@H](C)N(c2cc(=O)n(C)c3ccc(C#N)nc23)C[C@H]1C (stereo partly drawn) [Example 1230] | 160 |  |  | EC50 [2, 4]: 100 nM |
| CC(c1ccc(OC(F)(F)F)cc1F)N1C[C@H](C)N(c2cc(=O)n(C)c3ccc(C#N)nc23)C[C@H]1C (single isomer, unassigned) [Example 439] | 320 |  | 680 |  |
| C[C@@H]1CN(c2c(C#N)c(=O)n(C)c3ccc(C#N)nc23)CCN1C(c1ccc(Cl)cc1)c1ncccc1F (stereo partly drawn) [Example 913] |  |  |  | IC50 ([3]; DGKα liposome (LIPGLO) assay): 2100 nM; IC50 ([1]; DGKζ liposome (LIPGLO) assay): 5500 nM |
| COC[C@@H]1CN(c2cc(=O)n(C)c3ccc(C#N)nc23)[C@@H](C)CN1C(C)c1ccc(OC(F)(F)F)cc1 (single isomer, unassigned) [Example 1162] | 550 | 480 |  |  |
| CC[C@H]1CN(C(c2ccc(F)cc2)c2csc(C(F)(F)F)n2)[C@H](CC)CN1c1cc(=O)n(C)c2ccc(C#N)nc12 (single isomer, unassigned) [Example 1361] | 11 | 11 |  |  |
| C[C@H]1CN(C(c2ccc(F)cc2)c2ccc(F)cc2)[C@H](CO)CN1c1cc(=O)n(C)c2ccc(C#N)nc12 [Example 1151] | 22000 | 9600 |  |  |
| CC(c1ccc(C(F)(F)F)cn1)N1C[C@H](C)N(c2cc(=O)n(C)c3ccc(C#N)nc23)C[C@H]1C (single isomer, unassigned) [Example 642] | 190 |  |  | EC50 [2, 4]: 3300 nM |
| COc1cc(F)ccc1C(c1ccc(F)cc1)N1C[C@H](C)N(c2c([N+](=O)[O-])c(=O)n(C)c3ccc(C#N)nc23)C[C@H]1C (single isomer, unassigned) [Example 121] | 52000 | 240000 |  |  |
